Source: patent US20240336574A1 (LATIGO BIOTHERAPEUTICS, INC., priority 2021, published 2024)
pIC50: −log10 of the molar value. Read-outs that look alike come from different tables or passages of the source.

Target: T1, recombinant human NaV1.8 stably transfected HEK cells (Homo sapiens, UniProt Q9Y5Y9)
T1 construct: expressed in transfected cells; host or cells: HEK cells, stably transfected
Assay: Compound profiling on NaV1.8, human NaV1.8 cell line, SyncroPatch384PE automated patch clamp assay (Example 102, first set of compounds, Table 16)
Assay type: cell-based
Conditions: human NaV1.8 HEK cells, Table 16 (first set of compounds)
Method in brief: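 Automated whole-cell patch clamp on HEK cells precultured at 30 °C one day before recording; CsF-based internal, 140 mM NaCl external. 10-point curve, 20–0.001 μM final, 0.1% DMSO, 5 min exposure. IC50 for resting (P1, −120 mV hold) and inactivated (P2, after 10 s at −40 mV) block, normalized to 250 μM tetracaine and DMSO.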

[1] = inactivated state block (P2 measurement), read-out: P2IC50
[2] = resting state block (P1 measurement), read-out: P1IC50

T1 sequence (Q9Y5Y9 whole entry): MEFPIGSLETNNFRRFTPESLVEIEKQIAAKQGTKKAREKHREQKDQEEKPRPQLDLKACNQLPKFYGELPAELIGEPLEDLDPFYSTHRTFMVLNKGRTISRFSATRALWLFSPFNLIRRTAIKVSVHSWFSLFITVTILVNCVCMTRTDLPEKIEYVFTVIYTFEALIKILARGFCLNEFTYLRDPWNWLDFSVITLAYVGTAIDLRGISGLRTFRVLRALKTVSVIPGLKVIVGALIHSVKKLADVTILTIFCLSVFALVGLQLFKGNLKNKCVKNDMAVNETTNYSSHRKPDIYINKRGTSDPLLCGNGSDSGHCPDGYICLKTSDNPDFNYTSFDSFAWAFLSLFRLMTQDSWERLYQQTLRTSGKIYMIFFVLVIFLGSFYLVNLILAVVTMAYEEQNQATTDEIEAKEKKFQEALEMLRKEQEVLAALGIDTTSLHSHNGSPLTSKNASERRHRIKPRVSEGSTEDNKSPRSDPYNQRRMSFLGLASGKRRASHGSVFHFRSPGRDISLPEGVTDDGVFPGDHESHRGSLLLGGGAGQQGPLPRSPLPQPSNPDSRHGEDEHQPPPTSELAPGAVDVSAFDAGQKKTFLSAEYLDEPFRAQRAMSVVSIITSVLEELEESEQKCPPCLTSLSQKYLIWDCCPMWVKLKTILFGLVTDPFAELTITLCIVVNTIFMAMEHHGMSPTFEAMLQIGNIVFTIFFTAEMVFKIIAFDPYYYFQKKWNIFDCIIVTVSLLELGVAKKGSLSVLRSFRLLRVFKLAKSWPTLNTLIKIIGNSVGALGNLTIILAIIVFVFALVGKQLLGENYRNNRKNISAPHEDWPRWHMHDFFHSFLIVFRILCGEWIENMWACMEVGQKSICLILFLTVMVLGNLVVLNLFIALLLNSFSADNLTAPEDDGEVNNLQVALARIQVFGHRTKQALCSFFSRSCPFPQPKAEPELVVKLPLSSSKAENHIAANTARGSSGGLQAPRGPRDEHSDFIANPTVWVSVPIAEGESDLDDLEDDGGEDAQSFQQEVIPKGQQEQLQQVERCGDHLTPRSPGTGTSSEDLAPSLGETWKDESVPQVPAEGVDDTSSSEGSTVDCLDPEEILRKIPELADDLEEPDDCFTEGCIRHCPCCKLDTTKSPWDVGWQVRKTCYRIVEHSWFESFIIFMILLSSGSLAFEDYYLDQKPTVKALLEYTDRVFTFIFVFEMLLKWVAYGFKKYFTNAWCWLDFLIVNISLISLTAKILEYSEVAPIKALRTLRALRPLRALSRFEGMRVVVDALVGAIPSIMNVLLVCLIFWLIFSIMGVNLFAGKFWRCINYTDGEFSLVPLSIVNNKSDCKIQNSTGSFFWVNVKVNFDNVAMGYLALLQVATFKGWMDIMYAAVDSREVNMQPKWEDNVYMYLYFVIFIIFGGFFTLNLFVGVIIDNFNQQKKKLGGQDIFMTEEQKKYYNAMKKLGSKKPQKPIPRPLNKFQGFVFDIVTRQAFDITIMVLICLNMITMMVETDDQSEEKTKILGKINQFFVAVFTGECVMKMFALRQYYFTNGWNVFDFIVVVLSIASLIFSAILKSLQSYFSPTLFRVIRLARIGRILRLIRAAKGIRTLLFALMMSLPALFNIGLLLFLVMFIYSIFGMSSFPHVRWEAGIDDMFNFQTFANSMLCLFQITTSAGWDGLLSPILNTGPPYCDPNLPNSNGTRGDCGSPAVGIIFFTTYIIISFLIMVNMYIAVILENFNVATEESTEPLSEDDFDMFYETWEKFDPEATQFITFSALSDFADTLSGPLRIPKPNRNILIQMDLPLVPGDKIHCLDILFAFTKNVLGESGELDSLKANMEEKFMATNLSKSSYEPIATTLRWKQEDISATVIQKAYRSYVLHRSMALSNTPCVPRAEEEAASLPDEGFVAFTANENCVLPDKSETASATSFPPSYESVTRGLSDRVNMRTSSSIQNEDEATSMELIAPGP

| pIC50 [1] | pIC50 [2] | SMILES |
| --- | --- | --- |
| ≥ 7.70 | ≥ 7.70 | COc1nc(C2CC2)ccc1Oc1nnc(C(F)(F)F)c(C)c1C(=O)Nc1cccc(S(C)(=N)=O)c1 (stereo not shown) [Compound 1550, 3-[(6-cyclopropyl-2-methoxy-3-pyridyl)oxy]-5-methyl-N-[3-(methylsulfonimidoyl)phenyl]-6-(trifluoromethyl)pyridazine-4-carboxamide] |
| ≥ 7.70 | ≥ 7.70 | COc1c(Oc2nnc(C(F)(F)F)c(C)c2C(=O)Nc2ccn3nnnc3c2)ccc(F)c1F [Compound 1551, 3-(3,4-difluoro-2-methoxy-phenoxy)-5-methyl-N-(tetrazolo[1,5-a]pyridin-7-yl)-6-(trifluoromethyl)pyridazine-4-carboxamide] |
| ≥ 7.70 | ≥ 7.70 | COc1c(Oc2nnc(C(F)(F)F)c(C)c2C(=O)Nc2cccc(S(C)(=O)=O)c2)ccc(Cl)c1F [Compound 1552, 3-(4-chloro-3-fluoro-2-methoxy-phenoxy)-5-methyl-N-(3-methylsulfonylphenyl)-6-(trifluoromethyl)pyridazine-4-carboxamide] |
| 6.30 to 6.70 | 6.30 to 6.70 | Cc1cc(F)ccc1Oc1nncc(C)c1C(=O)Nc1cccc(S(C)(=N)=O)c1 (stereo not shown) [Compound 1553, 3-(4-fluoro-2-methyl-phenoxy)-5-methyl-N-[3-(methylsulfonimidoyl)phenyl]pyridazine-4-carboxamide] |
| 6.30 to 6.70 | 6.30 to 6.70 | COc1cc(C#N)ccc1Oc1nnc(C2=CCN(C(C)=O)CC2)c(C)c1C(=O)Nc1cccc(S(C)(=N)=O)c1 (stereo not shown) [Compound 1554, 6-(1-acetyl-3,6-dihydro-2H-pyridin-4-yl)-3-(4-cyano-2-methoxy-phenoxy)-5-methyl-N-[3-(methylsulfonimidoyl)phenyl]pyridazine-4-carboxamide] |
| 6.30 to 6.70 | 6.30 to 6.70 | COc1cc(C#N)ccc1Oc1nnc(C2=CCN(C)CC2)c(C)c1C(=O)Nc1cccc(S(C)(=N)=O)c1 (stereo not shown) [Compound 1555, 3-(4-cyano-2-methoxy-phenoxy)-5-methyl-6-(1-methyl-3,6-dihydro-2H-pyridin-4-yl)-N-[3-(methylsulfonimidoyl)phenyl]pyridazine-4-carboxamide] |
| 6.70 to 7.40 | 6.70 to 7.40 | COc1cc(C#N)ccc1Oc1nnc(C2=CCOC2)c(C)c1C(=O)Nc1cccc(S(C)(=N)=O)c1 (stereo not shown) [Compound 1556, 3-(4-cyano-2-methoxy-phenoxy)-6-(2,5-dihydrofuran-3-yl)-5-methyl-N-[3-(methylsulfonimidoyl)phenyl]pyridazine-4-carboxamide] |
| ≥ 7.70 | ≥ 7.70 | Cc1cc(F)ccc1Oc1ncc(C(F)(F)F)c(C)c1C(=O)Nc1cccc(S(C)(=N)=O)c1 (stereo not shown) [Compound 1557, 2-(4-fluoro-2-methylphenoxy)-4-methyl-N-(3-(S-methylsulfonimidoyl)phenyl)-5-(trifluoromethyl)nicotinamide] |
| ≥ 7.70 | ≥ 7.70 | Cc1cc(F)ccc1Oc1ncc(Cl)c(C)c1C(=O)Nc1cccc(S(C)(=N)=O)c1 (stereo not shown) [Compound 1558, 5-chloro-2-(4-fluoro-2-methylphenoxy)-4-methyl-N-(3-(S-methylsulfonimidoyl)phenyl)nicotinamide] |
| ≥ 7.70 | ≥ 7.70 | Cc1nc(F)ccc1Oc1ncc(C(F)(F)F)c(C)c1C(=O)Nc1cccc([S@](C)(=N)=O)c1 [Compound 1559, (R)-2-((6-fluoro-2-methylpyridin-3-yl)oxy)-4-methyl-N-(3-(S-methylsulfonimidoyl)phenyl)-5-(trifluoromethyl)nicotinamide] |
| ≥ 7.70 | ≥ 7.70 | Cc1nc(F)ccc1Oc1ncc(C(F)(F)F)c(C)c1C(=O)Nc1cccc([S@@](C)(=N)=O)c1 [Compound 1560, (S)-2-((6-fluoro-2-methylpyridin-3-yl)oxy)-4-methyl-N-(3-(S-methylsulfonimidoyl)phenyl)-5-(trifluoromethyl)nicotinamide] |
| ≥ 7.70 | ≥ 7.70 | COc1cc(C#N)ccc1Oc1ncc(C(F)(F)F)cc1C(=O)Nc1cccc(S(N)(=O)=O)c1 [Compound 1561, 2-(4-cyano-2-methoxyphenoxy)-N-(3-sulfamoylphenyl)-5-(trifluoromethyl)pyridine-3-carboxamide] |
| ≥ 7.70 | ≥ 7.70 | COc1cc(C#N)ccc1Oc1ncc(C(F)(F)F)cc1C(=O)Nc1cccc(S(C)(=N)=O)c1 (stereo not shown) [Compound 1562, 2-(4-cyano-2-methoxyphenoxy)-N-{3-[imino(methyl)oxo-λ^6-sulfanyl]phenyl}-5-(trifluoromethyl)pyridine-3-carboxamide] |
| 7.40 to 7.70 | 7.40 to 7.70 | CS(=O)(=O)c1cccc(NC(=O)c2cc(C(F)(F)F)cnc2Oc2ccc(OC(F)F)cc2)c1 [Compound 1563, 2-[4-(difluoromethoxy)phenoxy]-N-(3-methylsulfonylphenyl)-5-(trifluoromethyl)pyridine-3-carboxamide] |
| 6.70 to 7.40 | 7.40 to 7.70 | CS(=N)(=O)c1cccc(NC(=O)c2cc(C(F)(F)F)cnc2Oc2ccc(C(F)(F)F)cc2)c1 (stereo not shown) [Compound 1564, N-[3-(methylsulfonimidoyl)phenyl]-5-(trifluoromethyl)-2-[4-(trifluoromethyl)phenoxy]pyridine-3-carboxamide] |
| ≥ 7.70 | ≥ 7.70 | COc1c(Oc2ncc(Br)cc2C(=O)Nc2cccc(S(C)(=N)=O)c2)ccc(F)c1F (stereo not shown) [Compound 1567, 5-bromo-2-(3,4-difluoro-2-methoxy-phenoxy)-N-[3-(methylsulfonimidoyl)phenyl]pyridine-3-carboxamide] |
| ≥ 7.70 | ≥ 7.70 | COc1c(Oc2ncc(Br)cc2C(=O)Nc2ccc(C(N)=O)cc2)ccc(F)c1F [Compound 1569, 5-bromo-N-(4-carbamoylphenyl)-2-(3,4-difluoro-2-methoxy-phenoxy)pyridine-3-carboxamide] |
| ≥ 7.70 | ≥ 7.70 | Cc1cc(OC(F)(F)F)ccc1Oc1ncc(C(F)(F)F)cc1C(=O)Nc1cccc(S(C)(=O)=O)c1 [Compound 1573, N-(3-methylsulfonylpheny1)-2-[2-methyl-4-(trifluoromethoxy)phenoxy]-5-(trifluoromethyl)pyridine-3-carboxamide] |

| pIC50 [1] | pIC50 [2] | SMILES |
| --- | --- | --- |
| ≥ 7.70 | ≥ 7.70 | Cc1cc(F)ccc1Oc1ncc(C(F)(F)F)cc1C(=O)Nc1cccc(S(C)(=O)=O)c1 [Compound 1574, 2-(4-fluoro-2-methyl-phenoxy)-N-(3-methylsulfonylphenyl)-5-(trifluoromethyl)pyridine-3-carboxamide] |
| ≥ 7.70 | ≥ 7.70 | COc1cc(F)ccc1Oc1ncc(C(F)(F)F)cc1C(=O)Nc1cccc(S(C)(=O)=O)c1 [Compound 1575] |
| 6.70 to 7.40 | 6.70 to 7.40 | COc1cc(F)ccc1Oc1ncc(C(F)(F)F)cc1C(=O)Nc1cc(S(C)(=O)=O)ccc1F [Compound 1576] |
| 6.30 to 6.70 | 6.30 to 6.70 | CSc1cccc(NC(=O)c2cc(Br)cnc2Oc2ccc(F)cc2C)c1 [Compound 1577] |
| 6.30 to 6.70 | 6.30 to 6.70 | Cc1cc(F)ccc1Oc1ncc(C#N)cc1C(=O)Nc1cccc(S(C)(=N)=O)c1 (stereo not shown) [Compound 1578] |
| 6.30 to 6.70 | 6.30 to 6.70 | CSc1cccc(NC(=O)c2cc(C#N)cnc2Oc2ccc(F)cc2C)c1 [Compound 1579] |
| 6.30 to 6.70 | 6.30 to 6.70 | CS(=O)(=O)c1cccc(NC(=O)c2cc(C(F)(F)F)cnc2Oc2cncc3ccccc23)c1 [Compound 1581] |
| 6.30 to 6.70 | 6.30 to 6.70 | CS(=O)(=O)c1cccc(NC(=O)c2cc(C(F)(F)F)cnc2Oc2cnc(Cl)c3ccccc23)c1 [Compound 1582] |
| 7.40 to 7.70 | 7.40 to 7.70 | CS(=O)(=O)c1cccc(NC(=O)c2cc(C(F)(F)F)cnc2Oc2ccc(F)c3cnccc23)c1 [Compound 1583] |
| 6.30 to 6.70 | 6.30 to 6.70 | CS(=N)(=O)c1cccc(NC(=O)c2cc(C(F)(F)F)cnc2Oc2ccc(-c3ccccc3)cc2)c1 (stereo not shown) [Compound 1585] |
| 6.30 to 6.70 | 6.30 to 6.70 | CS(=N)(=O)c1cccc(NC(=O)c2cc(C(F)(F)F)cnc2Oc2ccc(-n3ccnc3)cc2)c1 (stereo not shown) [Compound 1586] |
| 6.70 to 7.40 | 6.70 to 7.40 | CS(=N)(=O)c1cccc(NC(=O)c2cc(C(F)(F)F)cnc2Oc2ccc(OCc3ccccc3)cc2)c1 (stereo not shown) [Compound 1587] |
| 6.70 to 7.40 | 6.70 to 7.40 | CS(=N)(=O)c1cccc(NC(=O)c2cc(C(F)(F)F)cnc2Oc2ccc(OC3CC3)cc2)c1 (stereo not shown) [Compound 1588] |
| 6.70 to 7.40 | 6.70 to 7.40 | Cc1nc(F)ccc1Oc1ncc(C(F)(F)F)cc1C(=O)Nc1cccc(S(C)(=N)=O)c1 (stereo not shown) [Compound 1589] |
| 6.30 to 6.70 | 6.30 to 6.70 | Cc1nn(C)cc1Oc1ncc(C(F)(F)F)cc1C(=O)Nc1cccc(S(C)(=N)=O)c1 (stereo not shown) [Compound 1590] |
| 6.30 to 6.70 | 6.30 to 6.70 | COc1ccc(Oc2ncc(C(F)(F)F)cc2C(=O)Nc2cccc(S(C)(=N)=O)c2)cc1C#N (stereo not shown) [Compound 1591] |
| 6.30 to 6.70 | 6.30 to 6.70 | COc1cc(C#N)cc(Oc2ncc(C(F)(F)F)cc2C(=O)Nc2cccc(S(C)(=N)=O)c2)c1 (stereo not shown) [Compound 1592] |
| ≥ 7.70 | 7.40 to 7.70 | Cc1cc(C(F)(F)F)ccc1Oc1ncc(C(F)(F)F)cc1C(=O)Nc1cccc(S(C)(=O)=O)c1 [Compound 1595] |

| SMILES | pIC50 [1] | pIC50 [2] |
| --- | --- | --- |
| Cc1nc(OC2CCC2)ccc1Oc1ncc(C(F)(F)F)cc1C(=O)Nc1cccc(C(N)=O)c1 [Compound 1565, N-(3-carbamoylphenyl)-2-[[6-(cyclobutoxy)-2-methyl-3-pyridyl]oxy]-5-(trifluoromethyl)pyridine-3-carboxamide] | 6.30 to 6.70 | 6.30 to 6.70 |
| Cc1nc(OC2CCC2)ccc1Oc1ncc(C(F)(F)F)cc1C(=O)Nc1ccc(C(N)=O)cc1 [Compound 1566, N-(4-carbamoylphenyl)-2-[[6-(cyclobutoxy)-2-methyl-3-pyridyl]oxy]-5-(trifluoromethyl)pyridine-3-carboxamide] | 6.30 to 6.70 | 6.30 to 6.70 |
